Data as given in ChEMBL document CHEMBL4373709 (J Med Chem, 2019).
Values belong to the molecule of their own block, whether it stands above or below them. Numbered stars: 1 amine (or outer) side, 2 acyl side, 3 side chain; on linkers, the order of the positions; unused ones are H or OH. Square brackets hold non-standard residues; d marks the D form. Peptide text beside a SMILES is read from it. X1 = NCCCC[C@H](N)CN([C@@H](CCCCN)C(=O)[*:2])[*:1]; Tle = CC(C)(C)[C@H](N)C(=O)O

Experiments:
[1] = target: T1, Neurotensin receptor type 1 (Homo sapiens, UniProt P30989); assay: Allosteric modulation of human GFP-fused PK-tagged Gq-coupled NTR1 expressed in CHOK1 cells assessed as induction of NT (8 to 13) peptide-mediated beta-arrestin recruitment measured after 90 mins by pathhunter assay; type: cell-based
T1 sequence (P30989 whole entry, the tested form may be a part): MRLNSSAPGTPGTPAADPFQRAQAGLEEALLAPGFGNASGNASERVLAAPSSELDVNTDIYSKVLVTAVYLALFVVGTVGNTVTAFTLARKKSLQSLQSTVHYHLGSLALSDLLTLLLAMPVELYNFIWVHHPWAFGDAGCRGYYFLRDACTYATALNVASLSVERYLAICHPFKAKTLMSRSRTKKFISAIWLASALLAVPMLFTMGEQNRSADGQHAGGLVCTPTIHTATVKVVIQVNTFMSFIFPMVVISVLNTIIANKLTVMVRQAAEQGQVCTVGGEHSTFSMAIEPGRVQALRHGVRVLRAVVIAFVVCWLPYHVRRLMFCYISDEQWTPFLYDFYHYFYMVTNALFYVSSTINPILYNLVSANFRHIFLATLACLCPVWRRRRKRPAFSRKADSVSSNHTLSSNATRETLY

[2] = Clearance in C57BL/6 mouse at 5 mg/kg, iv by LC-MS/MS analysis; type: ADME, organism-based; conditions: in vivo
[3] = Volume of distribution in C57BL/6 mouse at 5 mg/kg, iv by LC-MS/MS analysis; type: ADME, organism-based; conditions: in vivo
[4] = Toxicity in DAT knockout C57BL/6J mouse assessed as hypotension at 1 mg/kg, ip; type: organism-based; conditions: in vivo
[5] = Toxicity in DAT knockout C57BL/6J mouse assessed as hypothermia at 1 mg/kg, ip; type: organism-based; conditions: in vivo
[6] = AUC in C57BL/6 mouse at 30 mg/kg, po by LC-MS/MS analysis; type: ADME, organism-based; conditions: in vivo
[7] = Half life in C57BL/6 mouse at 30 mg/kg, po by LC-MS/MS analysis; type: ADME, organism-based; conditions: in vivo
[8] = Oral bioavailability in C57BL/6 mouse at 30 mg/kg by LC-MS/MS analysis; type: ADME, organism-based; conditions: in vivo
[9] = Ratio of drug level in brain to plasma of C57BL/6 mouse at 30 mg/kg, po measured after 1 hr by LC-MS/MS analysis; type: ADME, organism-based
[10] = AUC in Sprague-Dawley rat at 30 mg/kg, po by LC-MS/MS analysis; type: ADME, organism-based; conditions: in vivo
[11] = Half life in Sprague-Dawley rat at 30 mg/kg, po by LC-MS/MS analysis; type: ADME, organism-based; conditions: in vivo
[12] = Oral bioavailability in Sprague-Dawley rat at 30 mg/kg by LC-MS/MS analysis; type: ADME, organism-based; conditions: in vivo
[13] = Ratio of drug level in brain to plasma of Sprague-Dawley rat at 30 mg/kg, po measured after 1 hr by LC-MS/MS analysis; type: ADME, organism-based; conditions: brain and plasma, read-out: BPR
[14] = Toxicity in DAT knockout C57BL/6J mouse assessed as hypotension at 10 to 100 mg/kg, po; type: organism-based; conditions: in vivo
[15] = Toxicity in DAT knockout C57BL/6J mouse assessed as hypothermia at 10 to 100 mg/kg, po; type: organism-based; conditions: in vivo
[16] = target: Neurotensin receptor type 1 (Rattus norvegicus, UniProt P20789); assay: Displacement of [125I]neurotensin from rat brain NTR1
Chain of Neurotensin receptor type 1 (Rattus norvegicus, UniProt P20789) (P20789 whole entry): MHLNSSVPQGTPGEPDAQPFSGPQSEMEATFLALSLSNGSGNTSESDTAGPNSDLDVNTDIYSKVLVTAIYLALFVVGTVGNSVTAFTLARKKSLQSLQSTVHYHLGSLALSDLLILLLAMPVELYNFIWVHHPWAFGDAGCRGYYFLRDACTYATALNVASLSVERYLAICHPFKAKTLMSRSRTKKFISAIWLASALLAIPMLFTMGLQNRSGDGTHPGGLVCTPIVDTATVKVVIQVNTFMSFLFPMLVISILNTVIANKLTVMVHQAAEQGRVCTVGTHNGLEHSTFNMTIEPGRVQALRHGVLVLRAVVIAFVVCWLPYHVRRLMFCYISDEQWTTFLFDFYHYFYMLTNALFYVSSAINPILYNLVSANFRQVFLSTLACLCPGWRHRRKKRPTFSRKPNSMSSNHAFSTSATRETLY

[17] = Cmax in C57BL/6 mouse at 30 mg/kg, po by LC-MS/MS analysis; type: ADME, organism-based; set-up: dose 30 mg/kg, route oral; conditions: in vivo
[18] = Clearance in Sprague-Dawley rat at 5 mg/kg, iv by LC-MS/MS analysis; type: ADME, organism-based; conditions: in vivo
[19] = Ratio of drug level in brain to plasma of Sprague-Dawley rat at 30 mg/kg, po measured after 4 to 8 hrs by LC-MS/MS analysis; type: ADME, organism-based; conditions: brain and plasma, read-out: BPR
[20] = target: T1, Neurotensin receptor type 1; assay: Positive allosteric modulation of recombinant human NTR1 expressed in HEK293 cells assessed as increase in [125I]-neurotensin binding measured after 45 mins; type: cell-based
[21] = Toxicity in DAT knockout C57BL/6J mouse assessed as hypotension at 12 mg/kg, ip; type: organism-based; conditions: in vivo
[22] = Toxicity in DAT knockout C57BL/6J mouse assessed as hypothermia at 12 mg/kg, ip; type: organism-based; conditions: in vivo

EC50 [1]: 98 nM
clearance [2]: 79.4 mL/min/kg
Vd [3]: 7.68 L/kg
SMILES: COc1ccccc1C1CCN(c2nc(C3(C)CC3)nc3ccc(N(C)CCO)cc23)CC1

SMILES: CCOC(=O)[C@H](CC(C)C)NC(=O)[C@@H](NC(=O)[C@H](Cc1c[nH]c2ccccc12)NC(=O)[C@@H]1CCCN1C(=O)[C@H](CCCCN)NC[C@@H](N)CCCCN)C(C)(C)C (H-[X1]PW[Tle]L-OEt)
Activity [4]: Toxic
Activity [5]: Toxic

AUC [6]: 4824 ng·h/mL
t1/2 [7]: 5.28 h
bioavailability ([8]; C57BL/6, mouse): 45%
BPR [9]: 0.54
AUC [10]: 2693 ng·h/mL
t1/2 [11]: 2.23 h
bioavailability [12]: 48%
Kp at 1 h [13]: 0.98
SMILES: COc1ccccc1C1CCN(c2nc(C3(F)CC3)nc3ccc(N(C)CCO)cc23)CC1.Cl
Activity [14]: Non-Toxic
Activity [15]: Non-Toxic

IC50 [16]: 82 nM
SMILES: COc1cccc(OC)c1-c1cc(C(=O)NC2(C(=O)O)C3CC4CC(C3)CC2C4)nn1-c1ccnc2cc(Cl)ccc12 (stereo not drawn) [REMINERTANT]

Cmax [17]: 627 ng/mL
AUC [6]: 3324 ng·h/mL
t1/2 [7]: 2.9 h
F ([8]; mouse): 52%
BPR [9]: 0.35
SMILES: COc1ccccc1C1CCN(c2nc(C3(C)CC3)nc3ccc(N(C)CCO)cc23)CC1.Cl

EC50 [1]: 340 nM
clearance [2]: 44.8 mL/min/kg
clearance [18]: 81 mL/min/kg
Kp [19]: 0.98
EC50 [20]: 140 nM
SMILES: COc1ccccc1C1CCN(c2nc(C3(F)CC3)nc3ccc(N(C)CCO)cc23)CC1
Activity [21]: Non-Toxic
Activity [22]: Non-Toxic
